Data published in patent publication US10265276B2, “Pharmaceutical composition for preventing or treating arthritis or inflammatory disease containing 2-methoxy-4-(3-(4-methoxyphenyl)propyl-1-en-1-yl)phenol as active ingredient” (CHUNGBUK NATIONAL UNIVERSITY INDUSTRY-ACADEMIC COOPERATION …, priority 2015, dated 2019).

Key:
STAT3 [1] = assay: STAT3 phosphorylation in LPS-treated RAW 264.7 cells; assay type: cell-based, mouse
Method: 12. Western blotting assay: A whole cell lysate, a cytosolic extract, and a nuclear extract were obtained. SDS-PAGE and Western blotting assays were carried out as disclosed in published Documents 1 and 2. Simply speaking, the cells were seeded in a 6-well plate at a density of 5×10^5 cells/well, and cultured for 24 hours. Thereafter, the cells were treated with MMPP or DMSO for 24 hours. After the treatment, the cells were washed twice with PBS, and then lyzed. Proteins of the lyzed cells were separated on 10 to 15% SDS-PAGE. The proteins were transferred to a PVDF membrane, and the PVDF membrane was blocked at room temperature for 2.5 hours in a TB S/T buffer containing 5% skim milk. The membrane to which the proteins were transferred was analyzed using, as primary antibodies, murine monoclonal antibodies against Cdk2, Cdk4, Cdk6, cyclin B1, cyclin D1, cyclin E1, Bcl-2, Bax, caspase-3, caspase-8, STAT3, phspho-STAT3, (3-actin, and histone hl. Expression of the proteins was visualized using a chemiluminescence reagent (Amersham Pharmacia Biotech, Inc., Buckinghamshire, UK), and measured using a digital chemiluminescence imaging system equipped with a CCD camera (Fusion-FX, Fisher BioTech, Ltd., Wembley, Australia). […]

[2] = tested on: CAIA-induced C57BL/6 mice; assay: Collagen antibody-induced arthritis (CAIA) model; assay type: in vivo, mouse
Method: 14. Induction of rheumatoid arthritis in C57BL/6 mice: To induce rheumatoid arthritis, anti-collagen-II mAbs (CII-Ab, Arthrogen-CIA Arthritogenic Monoclonal Antibody, #53010: Chondrex, Inc., WA, USA) were intraperitoneally (i.p.) injected into 7-week-old male mice on the first day, and 50 μg of LPS was injected on the third day. To evaluate the severity of arthritis, a scoring system was applied according to the criteria.
0. No erythema and swelling are observed.
1. Slight erythema is observed in tarsals and ankle joints.
2. Slight erythema and swelling are observed from an ankle joint to the midfoot.
3. Erythema and swelling extending from ankle joints to the metatarsals are observed.
4. Erythema and severe swelling were observed throughout the ankles, feet, and fingers.
The sum of final scores was recorded daily until the sum reached 16. On the 18th day, each of the mice was anesthetized, and then located on a radiographic view box. Thereafter, a location of each of the mice was adjusted so that the mouse was disposed at a distance of 90 cm from an X-ray source. The radioanalysis on hind legs with arthritis was performed by irradiating the hind legs at […] for 0.01 seconds using an X-ray machine (BLD-150RK, Hradec Kralove, Czech Republic).
15. Immunohistochemical assay: An immunohistochemical assay was carried out using an avidin-biotin-peroxidase method known in the art. Each of joint tissue samples collected from the mice was fixed with formalin, and embedded in paraffin. These samples were continuously microtomed into sections with a thickness of 4 μm. Each of the sections was stained with haematoxylin/eosin (H&E), anti-COX-2 and anti-iNOS antibodies (Caymen Chemical, Ann Arbor, Mich.).
Referring to FIG. 10(A), MMPP (5 mg/kg, p.o.) (dissolved in 100 μL of PBS including 0.5 μL of DMSO), a vehicle (a negative control), or indomethacin (5 mg/kg, p.o./dissolved in […] of PBS after the dissolution) was administered daily to 7-week-old male C57BL/6 mice for 18 days.

STAT3 [3] = target: T1, STAT3 (Mus musculus, UniProt P42227); assay: Pull-down assay, MMPP conjugated to Sepharose 6B beads; assay type: binding; conditions: recombinant STAT3 protein and cell lysate containing STAT3 from RAW 264.7 cells
T1 construct: a cell lysate containing a recombinant STAT3 protein or a STAT3 protein; endogenous in cells; host or cells: RAW 264.7
T1 sequence (P42227 whole entry): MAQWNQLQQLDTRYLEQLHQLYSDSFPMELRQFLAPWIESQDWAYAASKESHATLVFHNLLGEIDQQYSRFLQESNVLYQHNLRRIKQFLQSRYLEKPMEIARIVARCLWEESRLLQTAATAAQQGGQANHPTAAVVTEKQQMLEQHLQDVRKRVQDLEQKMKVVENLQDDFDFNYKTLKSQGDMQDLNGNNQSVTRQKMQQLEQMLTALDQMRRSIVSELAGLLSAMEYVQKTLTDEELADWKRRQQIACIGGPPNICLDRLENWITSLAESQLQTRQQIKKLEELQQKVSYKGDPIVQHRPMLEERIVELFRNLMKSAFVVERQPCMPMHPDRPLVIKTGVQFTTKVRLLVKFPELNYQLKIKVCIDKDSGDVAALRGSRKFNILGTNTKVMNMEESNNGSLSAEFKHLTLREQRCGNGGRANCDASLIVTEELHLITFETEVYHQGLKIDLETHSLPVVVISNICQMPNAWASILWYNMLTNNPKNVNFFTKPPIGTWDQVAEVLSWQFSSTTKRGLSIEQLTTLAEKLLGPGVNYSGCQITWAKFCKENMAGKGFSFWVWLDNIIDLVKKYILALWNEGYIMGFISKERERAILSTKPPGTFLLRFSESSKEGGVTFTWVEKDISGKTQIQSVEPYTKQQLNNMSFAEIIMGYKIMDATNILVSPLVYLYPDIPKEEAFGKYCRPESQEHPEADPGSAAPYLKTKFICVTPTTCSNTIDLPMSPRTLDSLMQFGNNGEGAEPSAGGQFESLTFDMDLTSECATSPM
Method: As a method for isolating a protein complex, a pull-down assay is an assay for checking a protein-protein interaction. To identify a protein interacting with MMPP, MMPP was bound to […] epoxy-activated Sepharose 6B (Sigma, St Louis, Mo., United States).
To check the interaction between MMPP and STAT3, a pull-down assay was carried out. MMPP was conjugated to epoxy-activated Sepharose 6B. A pull-down assay was performed using an interaction between a cell lysate containing a recombinant STAT3 protein or a STAT3 protein and MMPP conjugated to Sepharose 6B beads. […] Referring to FIG. 2(D), it can also be seen that the binding of MMPP to mutant STAT3 Thr456A was reduced, compared to the STAT3.

STAT3 [4] = assay: STAT3-luciferase activity assay in LPS-induced RAW 264.7 cells; assay type: cell-based, mouse; conditions: concentration-dependent manner (0 to 4 mg/mL)
Method: 9. Cell infection: RAW 264.7 cells (5×10^4 cells/well) were added to a 24-well plate, and transiently infected with a STAT3-luciferase reporter plasmid and an iNOS-luciferase reporter plasmid using a Lipofectamine PLUS and plasmid mixture in OPTI-MEN.
11. Luciferase activity assay: RAW264.7 cells added to a 24-well plate at a density of 1×10^5 cells/well. After 90% confluence, the cells were transiently infected with STAT3 siRNA (Santa Cruz Biotechnology) or a mutant STAT3 (T456A) plasmid using a mixture of STAT3 siRNA (Santa Cruz Biotechnology) or a mutant STAT3 (T456A) plasmid and WelFect-EX PLUS in OPTI-MEN. […] The luciferase activity was measured using a luciferase assay kit (Promega, Madison, Wis., USA).
RAW 264.7 cells were transiently infected with a STAT3-luciferase construct, treated with LPS (1 μg/mL) alone or a combination of MMPP and LPS, and then activated for 12 hours. Thereafter, the luciferase activity, the ROS and PGE2 expression, and a level of pro-inflammatory cytokines were determined.

NF-κB = assay: EMSA and Western blotting of the NF-κB pathway in LPS-treated RAW 264.7 cells; assay type: cell-based, mouse
Method: 10. EMSA assay (Electromobility shift assay): RAW 264.7 cells were cultured for 24 hours to perform an EMSA assay. The relative density of a protein band was scanned using MyImage, and qualitatively analyzed using Labworks 4.0 software (UVP, Inc.).
12. Western blotting assay: A whole cell lysate, a cytosolic extract, and a nuclear extract were obtained. SDS-PAGE and Western blotting assays were carried out as disclosed in published Documents 1 and 2. Simply speaking, the cells were seeded in a 6-well plate at a density of 5×10^5 cells/well, and cultured for 24 hours. Thereafter, the cells were treated with MMPP or DMSO for 24 hours. After the treatment, the cells were washed twice with PBS, and then lyzed. Proteins of the lyzed cells were separated on 10 to 15% SDS-PAGE. The proteins were transferred to a PVDF membrane, and the PVDF membrane was blocked at room temperature for 2.5 hours in a TB S/T buffer containing 5% skim milk. The membrane to which the proteins were transferred was analyzed using, as primary antibodies, murine monoclonal antibodies against Cdk2, Cdk4, Cdk6, cyclin B1, cyclin D1, cyclin E1, Bcl-2, Bax, caspase-3, caspase-8, STAT3, phspho-STAT3, (3-actin, and histone hl. Expression of the proteins was visualized using a chemiluminescence reagent (Amersham Pharmacia Biotech, Inc., Buckinghamshire, UK), and measured using a digital chemiluminescence imaging system equipped with a CCD camera (Fusion-FX, Fisher BioTech, Ltd., Wembley, Australia).
RAW 264.7 cells were treated with LPS alone or a combination of LPS and MMPP for 30 minutes, and the DNA binding activities of NF-κB and STAT3 were examined using an electrophoretic mobility shift assay (EMSA). Also, the same amount of the total proteins (20 μg/Lane) was subjected to 10% SDS-PAGE, and STAT3, P-STAT3, p50, p65, IKK, lκB, and p-lκB were detected through Western blotting. A (3-actin protein or histone H was used as the control.

[5] = 5 mg/kg, p.o. daily, last (18th) day
[6] = LPS-induced, co-treated with MMPP

SMILES: COc1ccc(C/C=C/c2ccc(O)c(OC)c2)cc1 [MMPP, 2-methoxy-4-(3-(4-methoxyphenyl)prop-1-en-1-yl)phenol]
- LPS-induced phosphorylation of STAT3 (STAT3 [1]): inhibited
- degrees of bone destruction and fibrosis in ankle joints (histopathologic evaluation) ([2]; 5 mg/kg): remarkably reduced
- tissue edema and bone destruction of hind legs (radiographic inspection) ([2]; 5 mg/kg): significantly reduced
- clinical score [2, 5]: approximately 4.67
- clinical score lower than that of the CAIA group [2, 5]: 66.5%
- anti-arthritic effect in CAIA model ([2]; mouse, in vivo): had an anti-arthritic effect
- interaction with STAT3 in pull-down assay (STAT3 [3]): mediated the interaction
- LPS-induced STAT3 luciferase activity (STAT3 [4]): inhibited
- LPS-induced phosphorylation of IKKb and IKKa (NF-κB): inhibited
- DNA binding activity and transcriptional activity of NF-κB (NF-κB; [6]): reduced in a concentration-dependent manner
- IκB degradation (NF-κB; [6]): reduced in a concentration-dependent manner
- nuclear translocation of NF-κB subunits p65 and p50 (NF-κB; [6]): reduced in a concentration-dependent manner
